From patent US20230241101A1 (priority 2020, published 2023)
Read-outs that look alike come from different tables or passages of the source.

What was measured:
SARS-CoV-2 [1] = test: SARS-CoV-2 replication in Vero cells (qRT-PCR); type: cell-based; details: read-out: EC50, inhibition of 50% SARS-CoV-2 replication in Vero cells
SARS-CoV-2 [2] = test: GA treatment of COVID-19 golden hamster via intranasal administration; type: in vivo, golden hamster rats; details: nasal spray 25 mg/kg.bw daily, day 4
SARS-CoV-2 M^pro = SARS-CoV-2 M^pro (Severe acute respiratory syndrome coronavirus 2, UniProt P0DTD1); test: M^pro protease activity FRET assay; type: biochemical; details: no value printed (data not shown or figure only)
SD Rat = details: cited from earlier work
[3] = tested on: inflammatory cytokine levels; details: oral AF 6-9 mg/kg.bw; intraperitoneal GA 5 mg/kg.bw; cited from earlier work
Vero E6 cell = test: Cell viability CCK8, Vero E6 cells; type: cell-based; details: 48 hrs
Method: (§1) To test whether GA and AF are toxic to normal cells, Vero E6, RAW264.7, and 16HBE cell lines were tested. Various doses of AURANOFIN or GA gold cluster were added into cell culture media respectively. After 48 hours of incubation, cell viability was checked by CCK8 (Beyotime, China) following the manufacturer’s instruction, all studies were carried out in triplicate. All cell lines were obtained from ATCC with authentication service.

SARS-CoV-2 [4] = details: Rothan et al, Virology 2020; read-out: EC50, SARS-CoV-2 replication in infected Huh cells; cited from earlier work
[5] = tested on: human bronchial epithelial cells (16HBE); test: Cell viability CCK8, 16HBE cells; type: cell-based; details: 16HBE epithelial cell, 48 hrs
Method: as §1

BALB/c mice = details: cited from earlier work
[6] = tested on: macrophage RAW264.7 cells; test: Cell viability CCK8, RAW264.7 cells; type: cell-based; details: 48 hrs
Method: as §1

[7] = tested on: IL-6, IL-1β, TNF-α expression and NFκB pathway in 16HBE cells; test: Western blot of cytokine expression and NFκB pathway, 16HBE cells; type: cell-based, human
Method: (§2) RAW 264.7 or 16HBE cells were seeded into 6 well plates at a density of 2 × 10^6cells/well. […] The collected cell lysates were centrifuged at 13000 rpm for 10 min, and the supernatants were stored for the subsequent Western Blot analysis. The protein concentrations of the supernatants were determined using a microplate spectrophotometer (SPECTRAMAX M4 of Molecular Devices, USA) at a wavelength of 595 nm. An equal quantity of proteins (50 µg) was separated by running on 10% SDS-PAGE and the separated proteins were transferred to a polyvinylidene fluoride (PVDF) membrane (0.45 µm, Millipore, USA). […]

[8] = tested on: IL-6, IL-1β, TNF-α expression and NFκB pathway in RAW 264.7 cells; test: Western blot of cytokine expression and NFκB pathway, RAW 264.7 cells; type: cell-based; details: AF 1.2 µM, GA 40 µM
Method: as §2

With `CCC(CC)COC(=O)[C@H](C)N[P@](=O)(OC[C@H]1O[C@@](C#N)(c2ccc3c(N)ncnn23)[C@H](O)[C@@H]1O)Oc1ccccc1` the EC50 (SARS-CoV-2 [1]; Severe acute respiratory syndrome coronavirus 2, Vero, 48 h) was about 0.65 µM and the “average pathological score of lung (INHAND)” value (SARS-CoV-2 [2]) was “approx. 2.7”.

With `OC[C@H]1O[C@H]([S-])[C@H](O)[C@@H](O)[C@@H]1O.[Au+]` [aurothioglucose] the “inhibition / suppression of M^pro protease activity (in words)” value (SARS-CoV-2 M^pro) was “able to inhibit”.

For `CC(=O)OC[C@H]1O[C@@H]([S-])[C@H](OC(C)=O)[C@@H](OC(C)=O)[C@@H]1OC(C)=O.CCP(CC)CC.[Au+]` [AF, AURANOFIN], the LD50 (SD Rat; SD Rat, AF known value) is listed as “LD50, about 25 mg/kg.bw”, the “intraperitoneal LD50” value (SD Rat; rat, known value) is listed as “about 25.5 mg/kg” and the inflammatory cytokine levels [3] is listed as “significant suppression”. The CC50 (Vero E6 cell) was about 2.27 µM, the EC50 (SARS-CoV-2 [1]; MOI 0.015, 48 h.p.i., qRT-PCR) was about 0.83 µM and the EC50 (SARS-CoV-2 [4]) was about 1.4 µM. The CC50 [5] was about 0.63 µM, the LD50 (BALB/c mice; BALB/c Mice, AF known value) was “LD50, about 33.8 mg/kg.bw” and the “intraperitoneal LD50” value (BALB/c mice; mice, known value) was “about 33.8 mg/kg”. The CC50 [6] was about 2.63 µM, the “phosphorylation level of IKK, IκB, p65 and IL-6, IL-1β, TNF-α expression” value ([7]; bronchial epithelial cells, AF 0.15 µM, GA 20 µM) was “significantly inhibited” and the “IL-6, IL-1β, and TNF-α expression levels” value ([7]; human bronchial epithelial cells, TNFα 50 ng/mL, 24 hrs, AF 1.2 µM, GA 40 µM) was “significantly suppressed”. The “phosphorylation of IKK, IκB, and p65 (NFκB activation)” value ([8]; inflammatory macrophage cells) was “inhibit” and the “IL-6, IL-1β, and TNF-α expression levels” value ([8]; macrophage cells, TNFα 50 ng/mL, 24 hrs) was “significantly suppressed”.
